Patent publication US11766442B2, “T-cell lymphoma treatments” (City of Hope, priority 2017, dated 2023)
Read-outs that look alike come from different tables or passages of the source.

Key:
HUT78 cells = experiment: Cell viability assay using HUT78 cells in a CELLTITER-GLO assay; format: cell-based, human
Protocol: Compound (1) and FK-228 (an anticancer agent used in CTCL) were tested in a cell viability assay using HUT78 cells in a CELLTITER-GLO® assay. […] See, FIG. 1B.
Compound (2) (FIG. 8A) was tested in a cell viability assay using HUT78 cells in a CELLTITER-GLO® assay. To determine IC50 value of Compound (2) against human CTCL HUT78 cells, viability assay was performed using CELLTITER-GLO® Reagent as described by the supplier (Promega, Madison, WI). Briefly, cells (7500/well) were seeded in opaque 96-well plates and exposed to Compound (1) in a dose-dependent manner for 72 h at 37° C. in 5% CO2. After 72 h treatment with compound (1), CELLTITER-GLO® Reagent ([…]) was added to 96-well plates. Viable cells which are metabolically active are directly proportional to the ATP present. Luminescent signals correlate with the amount of ATP present in cells. After 10 min incubation with CELLTITER-GLO® Reagent, luminescence was measured at an integration time of 1 second/well using an automated BMG plate reader. Dimethyl sulfoxide (DMSO) was used as the vehicle control. Each experiment was conducted in triplicate. IC50 values were determined using CalcuSyn software (Biosoft).

HUT78 CTCL cells [1] = experiment: Carboxy-fluorescein succinimidyl ester (CFSE) staining cell proliferation assay; format: cell-based, human; conditions: 1.0, 10 or 100 nM, incubated 72 h
Protocol: Compound (1) was tested in a carboxy-fluorescein succinimidyl ester (CFSE) stained HUT78 CTCL proliferation assay. HUT78 cells were stained with CFSE dye. The CFSE stained cells were plated into 96-well plates in growth medium. The resulted cells were treated with 1.0, 10, or 100 nM solution of compound (1), and then incubated for 72 h under the growth conditions. After, optical densities were read on a multiwell scanning spectrophotometer at wavelength 488 nm.

HUT78 CTCL cells [2] = system: HUT78 CTCL cells
Protocol: Compound (1) was tested in a cell proliferation assay using HUT78 CTCL cells. The cells were treated with 0.3, 1, 3, 10, 30, or 100 nM concentration of compound (1), and then incubated for 48 h or 72 h under the growth conditions. […] Cells cultured in the absence of compound (1) served as a control.

HUT78 CTCL cells [3] = experiment: Cell apoptosis assay using HUT78 CTCL cells; format: cell-based, human; conditions: incubated 72 h, read-out: IC50, apoptosis induction
Protocol: Compound (1) was tested in a cell apoptosis assay using HUT78 CTCL cells.

[4] = system: HUT78 CTCL mouse xenograft; experiment: HUT78 CTCL mouse xenograft model; format: in vivo; conditions: for Drug associated toxicity observed in mice: compound (1) 20 mg/kg gavage, FK-228 2 mg/kg intraperitoneal twice weekly
Protocol: Compound (1) and FK-228 were tested for tumor growth inhibition in CTCL mouse xenograft models. One group of mice was treated with 20 mg/kg of compound (1) using gavage during 3 consecutive days, followed by 3 consecutive days of break. Another group of mice was treated with 2 mg/kg of FK-228 intraperitoneal, twice weekly. Mice with no treatment served as a control. The tumor volume, size, and weight were compared 12 days after the treatments started.

Row | SMILES | IC50 (HUT78 cells; Homo sapiens) | IC50 (HUT78 cells) | Inhibition of proliferation of CFSE stained HUT78 CTCL cells (HUT78 CTCL cells [1]) | IC50 (HUT78 CTCL cells [2]; read-out: IC50, cell proliferation, incubated 48 h) | IC50 (HUT78 CTCL cells [2]; read-out: IC50, cell proliferation, incubated 72 h) | IC50 (HUT78 CTCL cells [3]) | Reduction of the tumor size ([4]; 20 mg/kg gavage, 3 consecutive days on, 3 days break, 12 days after treatment start) | Tumor weight inhibition ([4]; 20 mg/kg gavage, 3 consecutive days on, 3 days break, 12 days after treatment start, P<0.001) | Tumor growth inhibition (tumor volume) ([4]; 20 mg/kg gavage, 3 consecutive days on, 3 days break, compared 12 days after treatment start, versus FK-228 regimen and vehicle) | Drug associated toxicity observed in mice [4]
1 | C/C=C1\NC(=O)[C@H]2CSSCC/C=C/[C@H](CC(=O)N[C@H](C(C)C)C(=O)N2)OC(=O)[C@H](C(C)C)NC1=O [FK-228, Romidepsin, reference compound] | 6.95 nM | – | – | – | – | – | – | – | – | –
2 | CN1C(=O)[C@@]23C[C@](C)(C#N)[C@H](c4ccc5c(c4)OCO5)N2C(=O)C1(C)S3=S (some centres unmarked) [compound (1)] | – | 6.61 nM | inhibits proliferation of HUT78 CTCL cells | 75 nM | 10 nM | 19.7 nM | results in the reduction of the tumor size | 89.8% | results in tumor growth inhibition | no toxicity was observed
3 | C/C=C1\NC(=O)[C@H]2CSSCC/C=C/[C@H](CC(=O)N[C@H](C(C)C)C(=O)N2)OC(=O)[C@H](C(C)C)NC1=O [romidespin, romidepsin, reference compound] | – | – | – | – | – | – | – | – | – | Ascites and diarrhea
